Results on one compound are retold here after patent publication US20230346878A1, “Treatment of Abdominal Pain Associated with Diarrhea-Predominant Irritable Bowel Syndrome” (Ironwood Pharmaceuticals, Inc., priority 2019, published 2023).

Where a SMILES comes first, the peptide text is derived from it. Bridges are numbered along the chain shown (N, C = ends).

This data set can be described thus: Phase 1 study of linaclotide DR2: PK in plasma and inspection of stool for intact tablets. The data set is classed as in vivo, human. As to the method: Delayed release “DR2” linaclotide tablets were administered in a double-blind, placebo-controlled Phase 1 study randomized healthy adult volunteers at dosing levels of 300 μg, 1200 μg, and 3000 μg or placebo for 7 days. Safety and tolerability were assessed at each dose and prior to escalation to the highest dose. Gastrointestinal pharmacodynamics (“PD”) assessments included change from baseline (CFB) in bowel movement frequency (Spontaneous bowel movement [SBM]/week) and stool consistency (Bristol stool form scale [BSFS]). To confirm release of linaclotide, all of the subject's stools were inspected for intact DR2 tablets.
PK assessments were conduct through blood determination of linaclotide and its metabolite in plasma, and feces for the determination of linaclotide and its metabolite in stool, were collected from all dosed subjects during the Clinic Period.

`C[C@@H]1NC(=O)[C@@H]2CCCN2C(=O)[C@H](CC(N)=O)NC(=O)[C@@H]2CSSC[C@H](N)C(=O)N[C@H]3CSSC[C@H](NC1=O)C(=O)N[C@@H]([C@@H](C)O)C(=O)NCC(=O)N[C@H](C(=O)N[C@@H](Cc1ccc(O)cc1)C(=O)O)CSSC[C@H](NC(=O)[C@H](Cc1ccc(O)cc1)NC(=O)[C@H](CCC(=O)O)NC3=O)C(=O)N2` [Linaclotide, linaclotide] (H-CCEYCCNPACTGCY-OH; disulfide 1-6, 2-10, 5-13 (inferred)): the “systemic absorption / exposure” value (DR2 tablets orally for 7 days) was “minimally absorbed with negligible systemic exposure”. The detection in plasma entry (following 7 days of oral administration of DR2) was “Neither linaclotide nor its active metabolite were detected”.
